Assay results taken from article PMC7206119, “RIP1 inhibition blocks inflammatory diseases but not tumor growth or metastases” (Cell Death and Differentiation, 2019).

What was measured:
Test in all cases: biochemical
Set-up in all cases: Thermo Fisher SelectScreen kinase panel: Z'-LYTE and Adapta activity, LanthaScreen binding
[1] = target: FLT4 (Homo sapiens, UniProt P35916)
Method in brief: (§1)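 Single-concentration panel: 10 µM GNE684 in KINOMEscan scanMAX binding (468 kinases) and in a 221-kinase panel run as Z'-LYTE/Adapta activity or LanthaScreen binding assays.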

[2] = target: T1, MLK1 (Homo sapiens, UniProt P80192)
T1 construct: gene MAP3K9
T1 sequence (P80192 whole entry): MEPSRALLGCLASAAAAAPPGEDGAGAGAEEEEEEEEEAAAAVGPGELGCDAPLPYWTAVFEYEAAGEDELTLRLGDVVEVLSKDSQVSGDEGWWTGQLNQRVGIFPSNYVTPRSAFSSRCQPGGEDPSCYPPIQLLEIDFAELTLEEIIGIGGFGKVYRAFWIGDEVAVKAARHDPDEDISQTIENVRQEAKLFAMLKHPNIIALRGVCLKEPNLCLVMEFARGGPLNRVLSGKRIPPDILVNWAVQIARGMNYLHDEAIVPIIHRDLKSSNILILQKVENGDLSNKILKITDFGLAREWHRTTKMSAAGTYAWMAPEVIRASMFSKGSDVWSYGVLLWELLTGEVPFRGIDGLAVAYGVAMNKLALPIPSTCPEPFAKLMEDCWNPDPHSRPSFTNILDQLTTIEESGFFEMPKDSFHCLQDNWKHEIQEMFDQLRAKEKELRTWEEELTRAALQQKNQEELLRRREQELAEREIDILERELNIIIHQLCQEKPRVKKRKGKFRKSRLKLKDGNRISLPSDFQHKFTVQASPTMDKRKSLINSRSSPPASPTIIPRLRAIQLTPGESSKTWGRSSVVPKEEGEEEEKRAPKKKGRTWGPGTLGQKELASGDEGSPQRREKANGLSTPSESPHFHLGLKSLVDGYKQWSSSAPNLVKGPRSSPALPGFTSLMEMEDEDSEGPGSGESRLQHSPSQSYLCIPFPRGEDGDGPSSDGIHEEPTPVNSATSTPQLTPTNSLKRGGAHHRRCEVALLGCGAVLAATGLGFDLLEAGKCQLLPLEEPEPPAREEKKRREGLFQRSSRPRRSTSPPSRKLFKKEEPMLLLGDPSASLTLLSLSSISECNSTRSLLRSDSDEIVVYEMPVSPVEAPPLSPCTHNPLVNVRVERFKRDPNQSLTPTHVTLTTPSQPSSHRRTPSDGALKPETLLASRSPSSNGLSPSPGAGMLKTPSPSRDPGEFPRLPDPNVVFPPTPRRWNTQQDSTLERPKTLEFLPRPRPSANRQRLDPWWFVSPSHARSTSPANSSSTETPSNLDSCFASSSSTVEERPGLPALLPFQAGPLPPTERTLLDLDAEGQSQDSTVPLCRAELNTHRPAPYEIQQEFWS
Method in brief: as §1

[3] = target: T2, Ros (Homo sapiens, UniProt P08922)
T2 construct: gene ROS1
Method in brief: as §1

[4] = target: TEC (Homo sapiens, UniProt P42680)
TEC, sequence (P42680 whole entry): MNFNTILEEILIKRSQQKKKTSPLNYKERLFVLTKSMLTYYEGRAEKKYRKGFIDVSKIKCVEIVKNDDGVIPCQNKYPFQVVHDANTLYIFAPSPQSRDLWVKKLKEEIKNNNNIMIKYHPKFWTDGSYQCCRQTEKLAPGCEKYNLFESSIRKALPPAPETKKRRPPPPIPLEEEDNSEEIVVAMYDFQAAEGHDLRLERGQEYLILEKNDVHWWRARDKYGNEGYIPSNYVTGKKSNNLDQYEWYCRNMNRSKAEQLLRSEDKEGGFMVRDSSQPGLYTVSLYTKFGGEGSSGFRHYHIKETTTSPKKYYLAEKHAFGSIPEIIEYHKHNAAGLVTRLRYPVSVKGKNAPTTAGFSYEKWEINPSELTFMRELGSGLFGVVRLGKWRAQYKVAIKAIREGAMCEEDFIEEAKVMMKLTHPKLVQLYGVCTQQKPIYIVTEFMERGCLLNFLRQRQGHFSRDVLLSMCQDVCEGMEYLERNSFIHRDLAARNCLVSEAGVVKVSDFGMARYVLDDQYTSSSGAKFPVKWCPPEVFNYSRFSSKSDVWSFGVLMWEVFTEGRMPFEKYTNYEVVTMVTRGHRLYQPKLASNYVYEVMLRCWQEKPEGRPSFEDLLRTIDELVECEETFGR
Method in brief: as §1

[5] = target: FLT3 (Homo sapiens, UniProt P36888)
Method in brief: as §1

[6] = target: T3, p38-gamma (Homo sapiens, UniProt P53778)
T3 construct: gene MAPK12
Method in brief: as §1

[7] = target: T4, MSK1 (Homo sapiens, UniProt O75582)
T4 construct: gene RPS6KA5
T4 sequence (O75582 whole entry): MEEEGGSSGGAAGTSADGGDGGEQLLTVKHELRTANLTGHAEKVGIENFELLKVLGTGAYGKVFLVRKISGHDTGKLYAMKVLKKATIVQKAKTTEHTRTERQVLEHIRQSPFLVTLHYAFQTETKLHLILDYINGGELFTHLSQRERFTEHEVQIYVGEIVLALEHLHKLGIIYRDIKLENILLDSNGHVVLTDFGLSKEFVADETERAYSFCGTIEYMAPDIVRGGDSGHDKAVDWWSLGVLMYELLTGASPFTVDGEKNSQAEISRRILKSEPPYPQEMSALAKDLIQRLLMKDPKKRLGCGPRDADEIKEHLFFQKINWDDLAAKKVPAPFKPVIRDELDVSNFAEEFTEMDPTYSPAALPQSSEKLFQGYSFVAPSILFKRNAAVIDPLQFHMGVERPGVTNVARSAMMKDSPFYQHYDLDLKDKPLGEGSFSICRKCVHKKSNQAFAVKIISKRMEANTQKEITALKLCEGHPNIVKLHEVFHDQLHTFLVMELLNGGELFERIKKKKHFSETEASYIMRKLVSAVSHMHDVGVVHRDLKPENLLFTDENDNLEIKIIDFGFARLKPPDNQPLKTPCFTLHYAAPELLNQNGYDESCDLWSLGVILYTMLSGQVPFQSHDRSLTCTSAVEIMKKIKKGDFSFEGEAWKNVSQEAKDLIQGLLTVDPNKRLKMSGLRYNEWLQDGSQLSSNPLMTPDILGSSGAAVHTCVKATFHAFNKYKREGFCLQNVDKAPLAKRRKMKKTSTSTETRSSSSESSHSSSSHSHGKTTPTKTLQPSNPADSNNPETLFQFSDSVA
Method in brief: as §1

[8] = target: T5, Abl (Homo sapiens, UniProt P00519)
T5 construct: gene ABL1
Method in brief: as §1

[9] = target: T6, CaMKII_beta (Homo sapiens, UniProt Q13554)
T6 construct: gene CAMK2B
Method in brief: as §1

[10] = target: NEK4 (Homo sapiens, UniProt P51957)
Method in brief: as §1

[11] = target: T7, RSK1 (Homo sapiens, UniProt Q15418)
T7 construct: gene RPS6KA1
Method in brief: as §1

[12] = target: PLK3 (Homo sapiens, UniProt Q9H4B4)
Method in brief: as §1

[13] = target: T8, Tpl2 (Homo sapiens, UniProt P41279)
T8 construct: gene MAP3K8
Method in brief: as §1

[14] = target: CAMKK1 (Homo sapiens, UniProt Q8N5S9)
Method in brief: as §1

[15] = target: PIM1 (Homo sapiens, UniProt P11309)
Method in brief: as §1

[16] = target: CLK1 (Homo sapiens, UniProt P49759)
Method in brief: as §1

[17] = target: CDK2/cyclinA (Homo sapiens, UniProt P24941)
Method in brief: as §1

[18] = target: FGFR1 (Homo sapiens, UniProt P11362)
Method in brief: as §1

[19] = target: DYRK3 (Homo sapiens, UniProt O43781)
Method in brief: as §1

[20] = target: T9, MYLK3(caMLCK) (Homo sapiens, UniProt Q32MK0)
T9 construct: cardiac MLCK
T9 sequence (Q32MK0 whole entry): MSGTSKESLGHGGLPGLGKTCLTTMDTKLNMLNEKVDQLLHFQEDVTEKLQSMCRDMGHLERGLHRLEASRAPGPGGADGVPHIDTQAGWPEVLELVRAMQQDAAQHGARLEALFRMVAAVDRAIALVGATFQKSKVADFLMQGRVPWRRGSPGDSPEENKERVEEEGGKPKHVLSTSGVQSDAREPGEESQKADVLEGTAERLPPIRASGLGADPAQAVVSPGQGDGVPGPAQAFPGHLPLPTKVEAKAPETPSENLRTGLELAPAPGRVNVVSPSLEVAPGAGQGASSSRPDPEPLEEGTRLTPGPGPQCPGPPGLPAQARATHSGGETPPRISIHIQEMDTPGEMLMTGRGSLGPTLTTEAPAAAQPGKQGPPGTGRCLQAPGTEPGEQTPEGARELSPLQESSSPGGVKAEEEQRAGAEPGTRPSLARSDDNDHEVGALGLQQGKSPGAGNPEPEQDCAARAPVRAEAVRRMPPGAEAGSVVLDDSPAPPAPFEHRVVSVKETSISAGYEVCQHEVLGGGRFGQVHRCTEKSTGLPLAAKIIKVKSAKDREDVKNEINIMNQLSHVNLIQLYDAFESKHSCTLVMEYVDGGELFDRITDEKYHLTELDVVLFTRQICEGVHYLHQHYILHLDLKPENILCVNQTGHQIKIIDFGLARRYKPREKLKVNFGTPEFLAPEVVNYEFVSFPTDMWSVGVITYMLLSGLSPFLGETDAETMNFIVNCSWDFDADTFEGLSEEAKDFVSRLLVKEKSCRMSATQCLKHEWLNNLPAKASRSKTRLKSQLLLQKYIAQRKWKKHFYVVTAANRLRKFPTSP
Method in brief: as §1

[21] = target: FGFR4 (Homo sapiens, UniProt P22455)
Method in brief: as §1

[22] = target: IGF1R (Homo sapiens, UniProt P08069)
IGF1R, sequence (P08069 whole entry): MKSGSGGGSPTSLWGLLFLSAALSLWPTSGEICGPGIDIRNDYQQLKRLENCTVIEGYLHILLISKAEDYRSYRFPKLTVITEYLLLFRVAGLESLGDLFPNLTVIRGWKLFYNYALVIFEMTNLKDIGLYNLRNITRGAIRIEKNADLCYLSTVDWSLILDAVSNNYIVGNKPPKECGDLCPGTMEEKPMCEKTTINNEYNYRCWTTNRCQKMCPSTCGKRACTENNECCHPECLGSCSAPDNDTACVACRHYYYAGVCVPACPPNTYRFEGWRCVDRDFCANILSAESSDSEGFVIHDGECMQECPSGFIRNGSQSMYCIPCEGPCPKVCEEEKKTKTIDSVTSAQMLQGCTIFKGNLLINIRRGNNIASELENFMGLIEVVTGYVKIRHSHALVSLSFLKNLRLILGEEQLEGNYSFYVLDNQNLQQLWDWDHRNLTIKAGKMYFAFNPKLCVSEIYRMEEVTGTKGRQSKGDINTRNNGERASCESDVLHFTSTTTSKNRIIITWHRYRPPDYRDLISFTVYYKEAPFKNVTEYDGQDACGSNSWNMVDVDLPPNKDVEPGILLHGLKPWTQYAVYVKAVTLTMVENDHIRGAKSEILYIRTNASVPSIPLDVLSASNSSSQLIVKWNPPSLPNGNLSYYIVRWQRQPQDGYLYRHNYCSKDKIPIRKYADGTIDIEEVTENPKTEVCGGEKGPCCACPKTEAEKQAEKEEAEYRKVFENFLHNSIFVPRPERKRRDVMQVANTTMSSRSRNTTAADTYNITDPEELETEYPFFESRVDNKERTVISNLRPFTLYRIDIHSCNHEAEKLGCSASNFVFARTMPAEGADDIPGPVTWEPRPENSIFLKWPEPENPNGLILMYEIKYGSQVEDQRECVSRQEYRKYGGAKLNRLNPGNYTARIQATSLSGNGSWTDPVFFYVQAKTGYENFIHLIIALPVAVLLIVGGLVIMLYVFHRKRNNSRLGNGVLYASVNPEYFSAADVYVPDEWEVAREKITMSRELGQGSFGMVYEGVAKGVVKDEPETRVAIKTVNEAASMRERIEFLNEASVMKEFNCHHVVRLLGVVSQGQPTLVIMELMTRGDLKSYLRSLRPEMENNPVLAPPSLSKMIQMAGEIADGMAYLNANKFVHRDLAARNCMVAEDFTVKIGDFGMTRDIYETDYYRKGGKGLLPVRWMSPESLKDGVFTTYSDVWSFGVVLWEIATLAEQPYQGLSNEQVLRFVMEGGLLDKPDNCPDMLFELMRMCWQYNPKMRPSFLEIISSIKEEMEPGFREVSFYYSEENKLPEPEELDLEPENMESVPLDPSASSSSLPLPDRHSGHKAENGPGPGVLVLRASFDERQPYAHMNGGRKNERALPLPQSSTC
Method in brief: as §1

[23] = target: T10, CaMKI (Homo sapiens, UniProt Q14012)
T10 construct: gene CAMK1
T10 sequence (Q14012 whole entry): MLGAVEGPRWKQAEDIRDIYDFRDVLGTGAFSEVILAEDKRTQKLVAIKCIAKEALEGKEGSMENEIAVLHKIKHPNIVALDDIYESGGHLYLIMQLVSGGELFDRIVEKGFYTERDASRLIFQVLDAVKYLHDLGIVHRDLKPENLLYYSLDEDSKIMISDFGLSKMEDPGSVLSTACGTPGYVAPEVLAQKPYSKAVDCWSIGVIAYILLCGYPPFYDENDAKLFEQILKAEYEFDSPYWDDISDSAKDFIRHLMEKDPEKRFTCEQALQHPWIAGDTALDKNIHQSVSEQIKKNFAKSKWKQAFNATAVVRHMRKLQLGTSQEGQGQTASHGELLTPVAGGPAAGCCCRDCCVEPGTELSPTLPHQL
Method in brief: as §1

COc1cc2c(cn1)N(C)C(=O)[C@@H](NC(=O)c1nc3n(n1)[C@H](c1ccccc1)CC3)CC2 [GNE684, (S)-N-((S)-7-methoxy-1-methyl-2-oxo-2,3,4,5-tetrahydro-1H-pyrido[3,4-b]azepin-3-yl)-5-phenyl-6,7-dihydro-5H-pyrrolo[1,2-b][1,2,4]triazole-2-carboxamide]
inhibition at 10 µM [1]: 14% | inhibition at 10 µM [2]: 7.5% | inhibition at 10 µM [3]: 3% | inhibition at 10 µM [4]: -1% | inhibition at 10 µM [5]: 10% | inhibition at 10 µM [6]: 7% | inhibition at 10 µM [7]: -4% | inhibition at 10 µM [8]: 2% | inhibition at 10 µM [9]: 2.5% | inhibition at 10 µM [10]: 4.5% | inhibition at 10 µM [11]: 4.5% | inhibition at 10 µM [12]: 5% | inhibition at 10 µM [13]: 7% | inhibition at 10 µM [14]: -7.5% | inhibition at 10 µM [15]: 1% | inhibition at 10 µM [16]: -0.5% | inhibition at 10 µM [17]: 6.5% | inhibition at 10 µM [18]: -2% | inhibition at 10 µM [19]: 2% | inhibition at 10 µM [20]: -11% | inhibition at 10 µM [21]: -6.5% | inhibition at 10 µM [22]: 5% | inhibition at 10 µM [23]: -5.5%
